# From ChEMBL document CHEMBL4630907 (2021)
# Active and inactive are the calls of the source. The calls are words filed in the database; no cut-off is given here.
# Key:
# Protein polybromo-1 [1] = target: T1, Protein polybromo-1 (Homo sapiens, UniProt Q86U86); assay: PBRM1(2) DiscoverX BROMOscan
# Protein polybromo-1 [2] = target: T1, Protein polybromo-1; assay: PBRM1(5) DiscoverX BROMOscan
# [3] = target: Voltage-gated inwardly rectifying potassium channel KCNH2 (Homo sapiens, UniProt Q12809); assay: (§1) Cross screening panel
# [4] = target: Muscarinic acetylcholine receptor M2 (Homo sapiens, UniProt P08172); assay: as §1
# [5] = target: Voltage-dependent L-type calcium channel subunit alpha-1C (Homo sapiens, UniProt Q13936); assay: as §1
# [6] = target: 5-hydroxytryptamine receptor 2A (Homo sapiens, UniProt P28223); assay: as §1
# [7] = target: 5-hydroxytryptamine receptor 1B (Homo sapiens, UniProt P28222); assay: as §1
# Aurora kinase B = Aurora kinase B (Homo sapiens, UniProt Q96GD4); assay: as §1
# Cytochrome P450 3A4 [8] = target: T2, Cytochrome P450 3A4 (Homo sapiens, UniProt P08684); assay: as §1
# D(2) dopamine receptor = D(2) dopamine receptor (Homo sapiens, UniProt P14416); assay: as §1
# [9] = target: Beta-2 adrenergic receptor (Homo sapiens, UniProt P07550); assay: as §1
# [10] = target: Kappa-type opioid receptor (Homo sapiens, UniProt P41145); assay: as §1
# [11] = target: Sodium channel protein type 5 subunit alpha (Homo sapiens, UniProt Q14524); assay: as §1
# [12] = target: Amine oxidase [flavin-containing] B (Homo sapiens, UniProt P27338); assay: as §1
# Histamine H1 receptor = Histamine H1 receptor (Homo sapiens, UniProt P35367); assay: as §1
# Vasopressin V1a receptor = Vasopressin V1a receptor (Homo sapiens, UniProt P37288); assay: as §1
# [13] = target: Potassium voltage-gated channel subfamily A member 5 (Homo sapiens, UniProt P22460); assay: as §1
# Substance-P receptor = Substance-P receptor (Homo sapiens, UniProt P25103); assay: as §1
# Adenosine receptor A2a = Adenosine receptor A2a (Homo sapiens, UniProt P29274); assay: as §1
# [14] = target: Prostaglandin G/H synthase 2 (Homo sapiens, UniProt P35354); assay: as §1
# [15] = target: Acetylcholine receptor subunit alpha (Homo sapiens, UniProt P02708); assay: as §1
# [16] = target: 5-hydroxytryptamine receptor 2C (Homo sapiens, UniProt P28335); assay: as §1
# [17] = target: Nuclear receptor subfamily 1 group I member 2 (Homo sapiens, UniProt O75469); assay: as §1
# [18] = target: Tyrosine-protein kinase Lck (Homo sapiens, UniProt P06239); assay: as §1
# [19] = target: Phosphatidylinositol 4,5-bisphosphate 3-kinase catalytic subunit gamma isoform (Homo sapiens, UniProt P48736); assay: as §1
# [20] = target: Sodium-dependent noradrenaline transporter (Homo sapiens, UniProt P23975); assay: as §1
# Cannabinoid receptor 2 = Cannabinoid receptor 2 (Homo sapiens, UniProt P34972); assay: as §1
# [21] = target: cGMP-inhibited 3',5'-cyclic phosphodiesterase 3A (Homo sapiens, UniProt Q14432); assay: as §1
# [22] = target: Muscarinic acetylcholine receptor M1 (Homo sapiens, UniProt P11229); assay: as §1
# Mu-type opioid receptor = Mu-type opioid receptor (Homo sapiens, UniProt P35372); assay: as §1
# [23] = target: Solute carrier organic anion transporter family member 1B1 (Homo sapiens, UniProt Q9Y6L6); assay: as §1
# [24] = target: T3, 5-hydroxytryptamine receptor 3A (Homo sapiens, UniProt P46098); assay: as §1
# T3 sequence (P46098 whole entry): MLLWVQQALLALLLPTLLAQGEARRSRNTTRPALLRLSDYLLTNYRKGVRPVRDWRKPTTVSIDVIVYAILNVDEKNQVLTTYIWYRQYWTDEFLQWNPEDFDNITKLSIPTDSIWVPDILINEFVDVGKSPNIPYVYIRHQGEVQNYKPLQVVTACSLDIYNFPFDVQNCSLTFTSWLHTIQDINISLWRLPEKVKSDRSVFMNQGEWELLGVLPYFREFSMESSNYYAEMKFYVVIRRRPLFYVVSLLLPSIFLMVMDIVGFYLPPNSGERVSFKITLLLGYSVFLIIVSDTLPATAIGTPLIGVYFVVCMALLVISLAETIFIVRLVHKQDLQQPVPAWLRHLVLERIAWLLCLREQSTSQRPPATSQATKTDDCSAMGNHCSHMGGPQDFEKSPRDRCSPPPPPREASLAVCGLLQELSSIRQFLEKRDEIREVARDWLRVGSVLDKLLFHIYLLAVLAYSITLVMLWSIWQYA
# Acetylcholinesterase = Acetylcholinesterase (Homo sapiens, UniProt P22303); assay: as §1
# [25] = target: Alpha-1B adrenergic receptor (Homo sapiens, UniProt P35368); assay: as §1
# D(1A) dopamine receptor = D(1A) dopamine receptor (Homo sapiens, UniProt P21728); assay: as §1
# [26] = target: Alpha-2C adrenergic receptor (Homo sapiens, UniProt P18825); assay: as §1
# [27] = target: Sodium-dependent serotonin transporter (Homo sapiens, UniProt P31645); assay: as §1
# [28] = target: Glutamate receptor ionotropic, NMDA 2B (Homo sapiens, UniProt Q13224); assay: as §1
# [29] = target: T4, Bromodomain-containing protein 2 (Homo sapiens, UniProt P25440); assay: BRD2(1) DiscoverX BROMOscan
# [30] = target: Delta-type opioid receptor (Homo sapiens) (UniProt P41143); details: Compound concentration 10.0 uM
# [31] = target: Bromodomain adjacent to zinc finger domain protein 2B (Homo sapiens, UniProt Q9UIF8); assay: BAZ2B DiscoverX BROMOscan
# [32] = target: Muscarinic acetylcholine receptor M4 (Homo sapiens) (UniProt P08173); details: Compound concentration 10.0 uM
# [33] = target: T4, Bromodomain-containing protein 2; assay: TR-FRET assay (BRD2 BD1)
# [34] = target: Bromodomain-containing protein 3 (Homo sapiens, UniProt Q15059); assay: BRD3(2) DiscoverX BROMOscan
# Cytochrome P450 3A4 [35] = target: T2, Cytochrome P450 3A4; assay: as §1; remark: listed apart in the source
# [36] = target: Histamine H3 receptor (Homo sapiens) (UniProt Q9Y5N1); details: Compound concentration 10.0 uM
# [37] = target: Alpha-2C adrenergic receptor (Homo sapiens) (UniProt P18825); details: Compound concentration 10.0 uM
# [38] = target: D(1B) dopamine receptor (Homo sapiens) (UniProt P21918); details: Compound concentration 10.0 uM
# [39] = target: 5-hydroxytryptamine receptor 1A (Homo sapiens) (UniProt P08908); details: Compound concentration 10.0 uM
# [40] = target: 5-hydroxytryptamine receptor 2C (Homo sapiens) (UniProt P28335); details: Compound concentration 10.0 uM
# Sequence of 5-hydroxytryptamine receptor 1B (P28222 whole entry): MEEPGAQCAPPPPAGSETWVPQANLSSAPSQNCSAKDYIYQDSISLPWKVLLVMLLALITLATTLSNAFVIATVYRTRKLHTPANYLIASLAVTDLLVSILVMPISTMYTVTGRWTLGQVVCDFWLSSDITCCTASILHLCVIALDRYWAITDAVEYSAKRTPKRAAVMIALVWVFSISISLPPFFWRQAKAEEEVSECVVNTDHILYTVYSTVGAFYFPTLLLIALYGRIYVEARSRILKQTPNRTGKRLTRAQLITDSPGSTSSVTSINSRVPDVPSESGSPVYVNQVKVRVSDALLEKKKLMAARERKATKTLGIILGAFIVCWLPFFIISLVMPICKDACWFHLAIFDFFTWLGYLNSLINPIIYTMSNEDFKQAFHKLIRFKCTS
# Sequence of Kappa-type opioid receptor (P41145 whole entry): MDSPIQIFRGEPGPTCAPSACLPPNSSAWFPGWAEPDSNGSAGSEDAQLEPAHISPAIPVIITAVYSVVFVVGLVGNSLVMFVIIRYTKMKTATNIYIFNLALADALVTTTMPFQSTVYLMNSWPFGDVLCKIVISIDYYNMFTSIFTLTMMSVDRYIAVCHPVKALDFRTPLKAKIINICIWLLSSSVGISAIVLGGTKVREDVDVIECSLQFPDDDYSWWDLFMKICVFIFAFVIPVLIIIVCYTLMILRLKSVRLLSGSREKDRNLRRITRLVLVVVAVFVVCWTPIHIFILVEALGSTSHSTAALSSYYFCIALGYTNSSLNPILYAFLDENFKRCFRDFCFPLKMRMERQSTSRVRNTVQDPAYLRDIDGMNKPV
# T4 sequence (P25440 whole entry): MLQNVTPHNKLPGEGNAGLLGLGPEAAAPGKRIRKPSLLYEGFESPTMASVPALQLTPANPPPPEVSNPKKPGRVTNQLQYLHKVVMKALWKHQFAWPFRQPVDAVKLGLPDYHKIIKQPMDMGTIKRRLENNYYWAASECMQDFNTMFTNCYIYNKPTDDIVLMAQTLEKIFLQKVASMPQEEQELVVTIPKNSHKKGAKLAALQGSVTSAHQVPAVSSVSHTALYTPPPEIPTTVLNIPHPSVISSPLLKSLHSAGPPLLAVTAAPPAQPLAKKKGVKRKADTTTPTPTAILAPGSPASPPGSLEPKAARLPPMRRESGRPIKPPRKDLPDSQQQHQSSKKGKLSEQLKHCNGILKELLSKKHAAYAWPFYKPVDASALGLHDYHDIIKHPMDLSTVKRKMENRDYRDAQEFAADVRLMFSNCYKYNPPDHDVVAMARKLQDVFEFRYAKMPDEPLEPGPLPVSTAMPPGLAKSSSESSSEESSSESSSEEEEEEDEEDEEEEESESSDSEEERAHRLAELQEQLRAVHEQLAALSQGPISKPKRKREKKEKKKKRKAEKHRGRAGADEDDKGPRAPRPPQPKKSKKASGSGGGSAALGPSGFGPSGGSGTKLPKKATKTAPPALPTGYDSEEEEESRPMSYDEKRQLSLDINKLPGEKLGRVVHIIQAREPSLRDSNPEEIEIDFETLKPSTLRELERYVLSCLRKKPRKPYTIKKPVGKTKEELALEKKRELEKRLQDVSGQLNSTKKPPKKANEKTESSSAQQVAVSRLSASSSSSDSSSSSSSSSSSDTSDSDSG
# T2 sequence (P08684 whole entry): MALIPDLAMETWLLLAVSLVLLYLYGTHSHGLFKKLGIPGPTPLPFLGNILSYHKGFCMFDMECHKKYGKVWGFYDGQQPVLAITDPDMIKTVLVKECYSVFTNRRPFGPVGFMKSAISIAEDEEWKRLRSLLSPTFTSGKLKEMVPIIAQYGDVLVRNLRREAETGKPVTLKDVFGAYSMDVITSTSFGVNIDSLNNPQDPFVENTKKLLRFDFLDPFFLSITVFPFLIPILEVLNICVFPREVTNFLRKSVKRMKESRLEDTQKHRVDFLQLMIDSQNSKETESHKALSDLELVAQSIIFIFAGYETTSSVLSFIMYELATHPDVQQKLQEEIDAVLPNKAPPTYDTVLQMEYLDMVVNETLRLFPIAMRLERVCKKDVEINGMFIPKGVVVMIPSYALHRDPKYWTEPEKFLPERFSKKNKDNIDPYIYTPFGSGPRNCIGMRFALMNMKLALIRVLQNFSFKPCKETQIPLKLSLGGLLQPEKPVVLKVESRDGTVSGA
# Sequence of Muscarinic acetylcholine receptor M2 (P08172 whole entry): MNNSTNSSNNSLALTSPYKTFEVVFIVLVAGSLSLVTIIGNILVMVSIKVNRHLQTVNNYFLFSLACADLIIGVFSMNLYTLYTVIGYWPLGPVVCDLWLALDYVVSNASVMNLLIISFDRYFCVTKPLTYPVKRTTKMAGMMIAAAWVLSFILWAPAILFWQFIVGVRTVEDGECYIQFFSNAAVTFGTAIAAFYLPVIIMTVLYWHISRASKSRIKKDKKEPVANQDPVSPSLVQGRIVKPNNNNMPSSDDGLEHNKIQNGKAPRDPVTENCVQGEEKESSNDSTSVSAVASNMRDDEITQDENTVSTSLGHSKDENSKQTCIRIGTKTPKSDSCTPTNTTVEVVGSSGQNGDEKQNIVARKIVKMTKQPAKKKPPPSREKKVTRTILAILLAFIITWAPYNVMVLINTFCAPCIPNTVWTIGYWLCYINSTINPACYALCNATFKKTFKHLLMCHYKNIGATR
# T1 sequence (Q86U86 whole entry): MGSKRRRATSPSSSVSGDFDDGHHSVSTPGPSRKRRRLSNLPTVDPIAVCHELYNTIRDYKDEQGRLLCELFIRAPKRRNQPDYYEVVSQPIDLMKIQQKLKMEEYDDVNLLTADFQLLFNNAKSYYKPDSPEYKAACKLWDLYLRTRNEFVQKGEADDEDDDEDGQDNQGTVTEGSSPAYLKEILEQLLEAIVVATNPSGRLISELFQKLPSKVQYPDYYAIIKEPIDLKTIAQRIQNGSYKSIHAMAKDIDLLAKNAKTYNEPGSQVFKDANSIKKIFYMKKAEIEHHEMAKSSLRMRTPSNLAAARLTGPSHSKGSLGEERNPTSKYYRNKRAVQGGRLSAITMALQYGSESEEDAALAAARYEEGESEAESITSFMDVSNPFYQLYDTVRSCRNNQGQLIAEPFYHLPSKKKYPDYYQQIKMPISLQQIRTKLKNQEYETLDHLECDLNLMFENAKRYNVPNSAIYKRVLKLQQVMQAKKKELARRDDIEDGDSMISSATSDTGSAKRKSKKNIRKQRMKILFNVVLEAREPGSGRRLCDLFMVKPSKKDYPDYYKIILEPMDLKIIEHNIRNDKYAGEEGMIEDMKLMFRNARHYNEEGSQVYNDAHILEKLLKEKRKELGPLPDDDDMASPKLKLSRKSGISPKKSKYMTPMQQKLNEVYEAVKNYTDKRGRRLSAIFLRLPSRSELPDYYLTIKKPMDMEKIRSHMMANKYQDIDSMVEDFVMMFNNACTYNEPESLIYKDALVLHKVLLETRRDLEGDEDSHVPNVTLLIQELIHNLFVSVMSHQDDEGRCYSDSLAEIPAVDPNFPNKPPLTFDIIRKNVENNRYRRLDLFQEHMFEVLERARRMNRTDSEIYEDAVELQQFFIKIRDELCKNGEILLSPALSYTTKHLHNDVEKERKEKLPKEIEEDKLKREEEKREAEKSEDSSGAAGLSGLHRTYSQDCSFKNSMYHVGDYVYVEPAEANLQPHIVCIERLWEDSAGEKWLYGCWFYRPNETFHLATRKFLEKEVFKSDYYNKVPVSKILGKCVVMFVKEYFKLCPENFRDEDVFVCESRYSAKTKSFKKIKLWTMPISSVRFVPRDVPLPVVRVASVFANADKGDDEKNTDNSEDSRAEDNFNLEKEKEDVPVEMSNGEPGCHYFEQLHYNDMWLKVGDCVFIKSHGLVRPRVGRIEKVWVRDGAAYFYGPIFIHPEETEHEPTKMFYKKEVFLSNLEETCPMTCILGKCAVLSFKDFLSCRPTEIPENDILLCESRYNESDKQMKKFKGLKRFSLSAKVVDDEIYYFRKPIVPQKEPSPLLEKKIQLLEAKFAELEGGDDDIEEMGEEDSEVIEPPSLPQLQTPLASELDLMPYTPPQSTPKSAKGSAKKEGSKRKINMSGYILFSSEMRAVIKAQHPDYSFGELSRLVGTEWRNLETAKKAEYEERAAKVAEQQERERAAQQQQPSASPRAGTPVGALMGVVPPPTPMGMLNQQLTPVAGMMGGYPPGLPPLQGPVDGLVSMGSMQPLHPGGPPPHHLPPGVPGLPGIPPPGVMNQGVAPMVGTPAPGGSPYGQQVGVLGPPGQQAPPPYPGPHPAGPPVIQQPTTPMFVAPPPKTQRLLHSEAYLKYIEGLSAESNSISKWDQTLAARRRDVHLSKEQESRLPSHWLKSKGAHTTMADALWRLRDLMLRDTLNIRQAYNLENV
# Sequence of Muscarinic acetylcholine receptor M1 (P11229 whole entry): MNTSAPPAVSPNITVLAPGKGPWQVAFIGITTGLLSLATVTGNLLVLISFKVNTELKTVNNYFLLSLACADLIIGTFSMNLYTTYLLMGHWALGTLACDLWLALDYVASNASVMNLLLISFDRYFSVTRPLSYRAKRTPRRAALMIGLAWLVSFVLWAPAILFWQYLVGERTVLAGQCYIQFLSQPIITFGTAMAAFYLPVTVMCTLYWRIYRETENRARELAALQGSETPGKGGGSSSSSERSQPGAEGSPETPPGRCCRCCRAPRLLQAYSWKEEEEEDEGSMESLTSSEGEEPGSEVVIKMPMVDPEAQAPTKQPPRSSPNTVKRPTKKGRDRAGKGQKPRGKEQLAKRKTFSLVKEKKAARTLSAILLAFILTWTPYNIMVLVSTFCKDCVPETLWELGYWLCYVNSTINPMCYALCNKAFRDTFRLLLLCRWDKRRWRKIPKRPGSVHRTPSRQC
# Sequence of Aurora kinase B (Q96GD4 whole entry): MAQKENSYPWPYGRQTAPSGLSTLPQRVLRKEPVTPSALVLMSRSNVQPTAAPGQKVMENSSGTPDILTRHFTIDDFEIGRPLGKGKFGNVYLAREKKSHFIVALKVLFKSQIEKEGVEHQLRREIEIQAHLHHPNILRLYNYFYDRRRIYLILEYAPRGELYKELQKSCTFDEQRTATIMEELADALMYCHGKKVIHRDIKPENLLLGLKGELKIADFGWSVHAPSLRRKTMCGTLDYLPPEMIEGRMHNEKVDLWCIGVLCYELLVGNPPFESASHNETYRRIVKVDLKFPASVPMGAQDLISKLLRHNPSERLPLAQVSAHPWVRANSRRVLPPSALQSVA
compound,measurement,setting,value
COCc1nc2cnc3cc(-c4c(C)noc4C)c(OC[C@H]4CCNC4)cc3c2n1[C@H](C)c1ccccc1 [GSK778],Kd,Protein polybromo-1 [1],29 µM
same,Kd,Protein polybromo-1 [2],30 µM
same,IC50,[3],39.8 µM
same,EC50,[4],> 50.1 µM
same,IC50,[4],10 µM
same,IC50,[5],> 100 µM
same,EC50,[6],> 25.1 µM
same,IC50,[6],> 25.1 µM
same,EC50,[7],> 100 µM
same,IC50,[7],> 100 µM
same,IC50,Aurora kinase B,> 31.6 µM
same,IC50,Cytochrome P450 3A4 [8],6.31 µM
same,EC50,D(2) dopamine receptor,> 100 µM
same,IC50,D(2) dopamine receptor,3.16 µM
same,EC50,[9],> 100 µM
same,IC50,[9],> 100 µM
same,EC50,[10],> 100 µM
same,IC50,[10],> 100 µM
same,IC50,[11],50.1 µM
same,IC50,[12],79.4 µM
same,IC50,Histamine H1 receptor,> 25.1 µM
same,IC50,Vasopressin V1a receptor,> 50.1 µM
same,IC50,[13],> 50.1 µM
same,IC50,Substance-P receptor,> 25.1 µM
same,EC50,Adenosine receptor A2a,> 100 µM
same,IC50,[14],> 100 µM
same,EC50,[15],> 50.1 µM
same,IC50,[15],1 µM
same,EC50,[16],> 25.1 µM
same,IC50,[16],> 25.1 µM
same,EC50,[17],> 50.1 µM
same,IC50,[18],> 31.6 µM
same,IC50,[19],> 31.6 µM
same,IC50,[20],20 µM
same,EC50,Cannabinoid receptor 2,> 100 µM
same,IC50,[21],> 100 µM
same,EC50,[22],> 50.1 µM
same,IC50,[22],> 50.1 µM
same,EC50,Mu-type opioid receptor,> 100 µM
same,IC50,[23],39.8 µM
same,EC50,[24],> 50.1 µM
same,IC50,[24],> 50.1 µM
same,IC50,Acetylcholinesterase,63.1 µM
same,IC50,[25],> 25.1 µM
same,IC50,D(1A) dopamine receptor,> 100 µM
same,EC50,[26],> 100 µM
same,IC50,[27],39.8 µM
same,IC50,[28],> 50.1 µM
same,Kd,[29],0.013 µM
same,inhibition,[30],38.5%
same,Kd,[31],30 µM
same,inhibition,[32],15.7%
same,IC50,[33],0.075 µM (active)
same,Kd,[34],0.31 µM
same,IC50,Cytochrome P450 3A4 [35],1 µM
same,inhibition,[36],-5.03%
same,inhibition,[37],15.3%
same,inhibition,[38],31.7%
same,inhibition,[39],15.3%
same,inhibition,[40],-0.02%
